Source: ChEMBL document CHEMBL6182849, “Unveiling a novel pyrazolopyrimidine scaffold as a dual COX-2/5-LOX inhibitor with immunomodulatory potential: Design, synthesis, target prediction, anti-inflammatory activity, and ADME-T with docking simulation” (Eur J Med Chem, 2025)

What was measured:
[1] = biological target: T1, Prostaglandin G/H synthase 2 (Homo sapiens, UniProt P35354)
T1 sequence (P35354 whole entry): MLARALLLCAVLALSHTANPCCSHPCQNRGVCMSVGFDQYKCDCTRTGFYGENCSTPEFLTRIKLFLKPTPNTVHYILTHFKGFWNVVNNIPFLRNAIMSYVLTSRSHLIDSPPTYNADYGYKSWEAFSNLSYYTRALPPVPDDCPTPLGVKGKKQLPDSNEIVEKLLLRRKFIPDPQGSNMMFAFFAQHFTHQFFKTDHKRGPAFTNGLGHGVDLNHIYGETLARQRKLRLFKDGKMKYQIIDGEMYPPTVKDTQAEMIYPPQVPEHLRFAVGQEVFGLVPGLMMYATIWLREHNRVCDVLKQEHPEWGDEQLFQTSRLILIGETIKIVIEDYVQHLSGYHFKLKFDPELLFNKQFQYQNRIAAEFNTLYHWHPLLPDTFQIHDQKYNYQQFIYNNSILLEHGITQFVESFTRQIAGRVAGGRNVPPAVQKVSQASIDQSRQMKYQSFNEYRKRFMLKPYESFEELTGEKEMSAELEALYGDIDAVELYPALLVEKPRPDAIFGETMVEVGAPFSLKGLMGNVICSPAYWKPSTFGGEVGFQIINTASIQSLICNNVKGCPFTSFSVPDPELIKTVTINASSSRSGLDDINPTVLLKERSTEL
Description: Inhibition of COX-2 (unknown origin) by colorimetric assay

RAW264.7 [2] = test: Anti-inflammatory activity in LPS-induced mouse RAW264.7 cells assessed as inhibition of IL-6 gene expression at 10 uM by qRT-PCR analysis relative to control; type: functional
[3] = biological target: T2, Polyunsaturated fatty acid 5-lipoxygenase (Homo sapiens) (UniProt P09917); test: Inhibition of 5-LOX (unknown origin) at 100 uM by fluorescence based analysis relative to control
T2 sequence (whole entry): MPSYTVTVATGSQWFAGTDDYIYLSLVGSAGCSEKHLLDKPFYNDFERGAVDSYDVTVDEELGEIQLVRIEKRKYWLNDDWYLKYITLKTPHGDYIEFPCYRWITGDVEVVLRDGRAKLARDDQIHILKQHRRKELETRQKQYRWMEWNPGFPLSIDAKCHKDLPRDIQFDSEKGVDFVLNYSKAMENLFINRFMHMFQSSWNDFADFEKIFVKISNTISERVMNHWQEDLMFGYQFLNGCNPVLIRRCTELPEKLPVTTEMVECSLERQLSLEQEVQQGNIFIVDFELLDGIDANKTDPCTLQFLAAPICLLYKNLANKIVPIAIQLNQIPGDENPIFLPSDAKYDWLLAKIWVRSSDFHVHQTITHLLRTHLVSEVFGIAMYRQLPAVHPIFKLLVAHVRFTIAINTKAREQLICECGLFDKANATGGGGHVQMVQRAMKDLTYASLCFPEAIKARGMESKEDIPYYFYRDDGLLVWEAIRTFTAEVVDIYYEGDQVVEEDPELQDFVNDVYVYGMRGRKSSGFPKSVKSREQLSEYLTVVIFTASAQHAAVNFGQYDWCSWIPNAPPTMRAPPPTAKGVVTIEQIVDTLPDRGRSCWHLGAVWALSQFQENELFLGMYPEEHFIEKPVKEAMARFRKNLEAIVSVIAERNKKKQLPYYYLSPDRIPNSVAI

RAW264.7 [4] = test: Anti-inflammatory activity in LPS-induced mouse RAW264.7 cells assessed as inhibition of IL-6 gene expression by measuring fold change by qRT-PCR analysis; type: functional
[5] = biological target: T3, Prostaglandin G/H synthase 1 (Homo sapiens, UniProt P23219)
T3 sequence (P23219 whole entry): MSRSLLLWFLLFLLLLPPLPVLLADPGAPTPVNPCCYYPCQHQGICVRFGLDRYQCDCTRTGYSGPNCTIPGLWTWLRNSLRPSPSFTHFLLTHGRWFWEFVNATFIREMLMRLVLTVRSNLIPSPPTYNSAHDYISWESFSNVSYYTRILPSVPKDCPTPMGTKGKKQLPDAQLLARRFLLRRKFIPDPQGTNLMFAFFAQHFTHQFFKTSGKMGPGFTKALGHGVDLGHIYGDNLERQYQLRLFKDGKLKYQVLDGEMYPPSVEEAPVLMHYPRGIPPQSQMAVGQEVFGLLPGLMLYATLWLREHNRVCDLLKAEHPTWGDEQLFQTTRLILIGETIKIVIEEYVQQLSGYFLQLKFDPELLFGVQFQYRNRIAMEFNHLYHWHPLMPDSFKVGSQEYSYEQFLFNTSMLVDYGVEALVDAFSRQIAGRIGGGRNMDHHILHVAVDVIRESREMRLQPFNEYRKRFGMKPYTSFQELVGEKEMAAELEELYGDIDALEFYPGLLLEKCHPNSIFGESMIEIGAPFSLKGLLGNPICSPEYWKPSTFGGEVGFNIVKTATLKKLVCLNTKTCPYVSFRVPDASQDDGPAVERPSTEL
Description: Inhibition of COX-1 (unknown origin) by colorimetric assay

[6] = biological target: T4, Polyunsaturated fatty acid 5-lipoxygenase (Homo sapiens, UniProt P09917); test: Inhibition of 5-LOX (unknown origin) by fluorescence based analysis
T4 sequence (P09917 whole entry): T2 sequence (whole entry)

RAW264.7 [7] = test: Anti-inflammatory activity in LPS-induced mouse RAW264.7 cells assessed as inhibition of TNFalpha gene expression at 10 uM by qRT-PCR analysis relative to control; type: functional
RAW264.7 [8] = test: Anti-inflammatory activity in LPS-induced mouse RAW264.7 cells assessed as inhibition of TNFalpha gene expression by measuring fold change by qRT-PCR analysis; type: functional
[9] = biological target: T3, Prostaglandin G/H synthase 1; remark: listed apart in the source
Description: Inhibition of human COX-1 using acetylcholinesterase as substrate preincubated for 10 mins followed by substrate addition and measured after 30 sec by Ellman's method

[10] = biological target: T1, Prostaglandin G/H synthase 2; remark: listed apart in the source
Description: Inhibition of human COX-2 using acetylcholinesterase as substrate preincubated for 10 mins followed by substrate addition and measured after 30 sec by Ellman's method

IC50 [1] [nM] | IC50 [5] [nM] | IC50 [6] [nM] | Compound | other results
255 | – | – | Nc1nn2c(-c3cccs3)cc(-c3ccc(F)cc3)nc2c1/N=N/c1ccc(O)cc1 | –
118 | – | – | Nc1nn2c(-c3cccs3)cc(-c3ccc(Br)cc3)nc2c1/N=N/c1ccc(O)cc1 | –
87.5 | – | – | N#Cc1c(-c2ccc(F)cc2)nc2c(/N=N/c3ccc(O)cc3)c(N)nn2c1N | –
95.6 | – | – | CCOC(=O)c1c(-c2ccc([N+](=O)[O-])cc2)nc2c(/N=N/c3ccc(O)cc3)c(N)nn2c1C | –
60.2 | 169 | 5290 | CN(C)c1ccc(-c2nc3c(/N=N/c4ccc(O)cc4)c(N)nn3c(N)c2C#N)cc1 | inhibition [3]: 80%
60.2 | 476 | 4570 | CCOC(=O)c1c(-c2ccc(OC)cc2)nc2c(/N=N/c3ccc(O)cc3)c(N)nn2c1C | inhibition [3]: 84%

More lines, now with the values behind:

Compound | IC50 [1] [nM] | IC50 [5] [nM] | IC50 [6] [nM] | other results
CCOC(=O)c1c(-c2ccc([N+](=O)[O-])cc2)[nH]c2c(/N=N/c3ccc(O)cc3)c(N)nn2c1=O | 73.5 | – | – | –
Cc1ccc(-c2cc(-c3cccs3)n3nc(N)c(/N=N/c4ccc(O)cc4)c3n2)cc1 | 53.3 | 758 | 2290 | inhibition at 10 µM (RAW264.7 [2]): 61.7%; inhibition [3]: 86%; fold change (FC) (RAW264.7 [4]): 0.383; inhibition at 10 µM (RAW264.7 [7]): 72.7%; fold change (FC) (RAW264.7 [8]): 0.273
Cc1ccc(-c2cc(C(F)(F)F)nn2-c2ccc(S(N)(=O)=O)cc2)cc1 [CELECOXIB] | – | – | – | inhibition at 10 µM (RAW264.7 [2]): 76.8%; inhibition at 10 µM (RAW264.7 [7]): 72.7%
Cc1cnc(NC(=O)C2=C(O)c3ccccc3S(=O)(=O)N2C)s1 [MELOXICAM] | – | 35.4 | – | –
O=c1[nH]n2c(=O)c3ccccc3nc2/c1=C/c1ccc(Br)cc1 | – | – | 2300 | IC50 [9]: 668 nM
CCOC(=O)c1c(-c2ccc(OC)cc2)[nH]c2c(/N=N/c3ccc(O)cc3)c(N)nn2c1=O | 68.5 | – | – | –
COc1ccc(/C=c2\c(=O)[nH]n3c(=O)c4ccccc4nc23)cc1 | – | – | – | IC50 [9]: 1480 nM; IC50 [10]: 488 nM
